Values quoted from earlier work as cited in US5028692A, “Gastrin releasing peptide antagonist” (Merck & Co., Inc., priority 1989, dated 1991).
Peptide text beside a SMILES is read from it.

Assays:
[1] = tested on: bombesin-stimulated growth

Row | Compound | inhibition of clonal and mass culture growth (SCLC cell lines) | inhibition of bombesin-stimulated growth [1]
1 | CSCC[C@H](NC(=O)[C@H](CC(C)C)NC(=O)CNC(=O)[C@H](Cc1ccc(O)cc1)NC(=O)[C@H](Cc1ccccc1)NC(=O)[C@H](CCCCN)NC(=O)[C@H](CC(N)=O)NC(=O)[C@@H]1CCCN1C(=O)[C@H](CC(=O)O)NC(=O)[C@H](C)NC(=O)[C@@H]1CCC(=O)N1)C(N)=O [physalaemin] (HELM PEPTIDE1{[Glp].A.D.P.N.K.F.Y.G.L.M.[am]}$$$$V2.0) | inhibits the clonal and mass culture growth of SCLC cell lines at picomolar concentrations | –
2 | [Leu^14 -.PSI.-CH2 NH-Leu^13 ] bombesin | – | potent inhibitor
